Source: article PMC3509132, “Global Epigenetic Changes Induced by SWI2/SNF2 Inhibitors Characterize Neomycin-Resistant Mammalian Cells” (PLoS ONE, 2012)
Where two headings read alike, the source gives them in different places.

Experiments:
[1] = molecular target: T1, MAD 47 (ADAAD deletion construct; motifs Q, I, Ia, II, III) (Bos taurus, UniProt Q9TTA5); test: Fluorescence binding titration, deletion construct MAD47
T1 sequence (Q9TTA5 211-635): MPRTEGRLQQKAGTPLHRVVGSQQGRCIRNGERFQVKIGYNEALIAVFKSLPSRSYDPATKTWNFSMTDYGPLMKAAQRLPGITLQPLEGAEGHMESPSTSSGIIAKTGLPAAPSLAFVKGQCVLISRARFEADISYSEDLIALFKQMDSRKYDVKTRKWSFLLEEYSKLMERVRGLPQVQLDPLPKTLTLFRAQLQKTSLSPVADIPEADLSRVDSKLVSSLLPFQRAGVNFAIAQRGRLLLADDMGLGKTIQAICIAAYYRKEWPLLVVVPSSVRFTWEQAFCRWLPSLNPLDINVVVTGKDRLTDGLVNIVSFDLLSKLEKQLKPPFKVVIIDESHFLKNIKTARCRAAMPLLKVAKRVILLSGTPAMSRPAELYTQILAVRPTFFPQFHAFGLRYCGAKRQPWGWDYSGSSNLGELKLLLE
Procedure: (§1) His-ADAAD, used for binding studies, was purified as described previously. For mapping and CD studies, ADAAD as well as deletion constructs were expressed as GST-fusion protein in BL21 (DE3) cells and purified as described previously. In case of deletion constructs the GST-tag was not cleaved as the resultant proteins were not stable.
(§2) Fluorescence was measured at 25°C using Cary-Varian spectrofluorimeter as described previously. Stem-loop DNA (5′- […]-3′), synthesized by Sigma-Aldrich, was used in these studies. The intrinsic fluorescence quenching data obtained with acrylamide was analyzed using Stern-Volmer plots as described previously, [14].
(§3) ADAAD contains the conserved helicase motifs (Table 2). Three deletion constructs of ADAAD-MAD47, MAD33, and MAD53-lacking DNA-dependent ATPase activity were used to delineate the interaction region (Table 2). The Kd values for the interaction of ADAADiN with MAD47 and MAD 33 were similar to that of wild type leading to the conclusion that motifs Q, I, and Ia are sufficient for the ADAADi-ADAAD interaction. In contrast, these three motifs are not sufficient for the slDNA-ADAAD interaction (Table 2). […]

ADAAD [2] = molecular target: T2, ADAAD (Bos taurus, UniProt Q9TTA5); settings: ADAAD alone; His-ADAAD; ref Nongkhlaw et al. (Nongkhlaw, 2009); cited from earlier work
T2 sequence (Q9TTA5 229-940 limits assumed): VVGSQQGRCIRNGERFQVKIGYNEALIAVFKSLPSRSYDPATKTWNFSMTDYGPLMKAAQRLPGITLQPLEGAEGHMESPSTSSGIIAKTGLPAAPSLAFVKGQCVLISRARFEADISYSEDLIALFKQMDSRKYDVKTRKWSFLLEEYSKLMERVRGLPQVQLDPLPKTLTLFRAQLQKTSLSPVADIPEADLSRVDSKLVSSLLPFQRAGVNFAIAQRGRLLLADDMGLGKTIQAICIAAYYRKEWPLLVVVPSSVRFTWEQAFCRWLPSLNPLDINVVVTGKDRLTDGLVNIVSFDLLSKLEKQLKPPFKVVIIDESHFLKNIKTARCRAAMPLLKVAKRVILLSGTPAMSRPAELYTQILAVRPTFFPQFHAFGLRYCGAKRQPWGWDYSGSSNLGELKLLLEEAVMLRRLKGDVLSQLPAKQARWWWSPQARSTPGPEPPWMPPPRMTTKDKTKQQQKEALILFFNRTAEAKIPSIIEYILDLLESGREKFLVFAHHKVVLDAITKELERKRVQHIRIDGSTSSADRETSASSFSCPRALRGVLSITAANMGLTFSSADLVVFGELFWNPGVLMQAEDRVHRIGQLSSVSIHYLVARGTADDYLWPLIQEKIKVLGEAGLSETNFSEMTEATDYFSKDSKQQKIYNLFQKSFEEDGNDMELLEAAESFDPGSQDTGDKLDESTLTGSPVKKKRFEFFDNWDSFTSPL

[3] = molecular target: T3, MAD8 (ADAAD deletion construct; motif Ia) (Bos taurus, UniProt Q9TTA5); test: Fluorescence binding titration, deletion construct MAD8; settings: GST fusion
T3 sequence (Q9TTA5 465-535): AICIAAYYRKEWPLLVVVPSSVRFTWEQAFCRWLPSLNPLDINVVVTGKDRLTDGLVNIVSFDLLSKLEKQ
Procedure: as §1, §2

ADAAD [4] = molecular target: T2, ADAAD; test: Intrinsic tryptophan fluorescence quenching binding titration with His-ADAAD; settings: His-ADAAD, read-out: Kd
Procedure: as §1, §2
To understand the interaction of ADAADi with ADAAD, a member of the SWI2/SNF2 family, we synthesized ADAADi using kanamycin and neomycin. These derivatives, ADAADiK and ADAADiN respectively, were purified and titrated with protein while monitoring the quenching of the intrinsic tryptophan fluorescence. […] This binding constant was same as that in the absence of ATP and slDNA. A similar result was obtained with ADAADiK (Figure S3A and S3B; Table 1). We thus conclude that the interaction of the inhibitor with ADAAD is independent of these two ligands.

[5] = tested on: MAD28 (ADAAD deletion construct; motifs Q, I); test: Fluorescence binding titration, deletion construct MAD28; settings: GST fusion
Procedure: as §1, §2

[6] = molecular target: T4, MAD 53 (ADAAD deletion construct; motifs Ia, II, III, IV, V, VI) (Bos taurus, UniProt Q9TTA5); test: Fluorescence binding titration, deletion construct MAD53; settings: GST fusion
T4 sequence (Q9TTA5 465-940): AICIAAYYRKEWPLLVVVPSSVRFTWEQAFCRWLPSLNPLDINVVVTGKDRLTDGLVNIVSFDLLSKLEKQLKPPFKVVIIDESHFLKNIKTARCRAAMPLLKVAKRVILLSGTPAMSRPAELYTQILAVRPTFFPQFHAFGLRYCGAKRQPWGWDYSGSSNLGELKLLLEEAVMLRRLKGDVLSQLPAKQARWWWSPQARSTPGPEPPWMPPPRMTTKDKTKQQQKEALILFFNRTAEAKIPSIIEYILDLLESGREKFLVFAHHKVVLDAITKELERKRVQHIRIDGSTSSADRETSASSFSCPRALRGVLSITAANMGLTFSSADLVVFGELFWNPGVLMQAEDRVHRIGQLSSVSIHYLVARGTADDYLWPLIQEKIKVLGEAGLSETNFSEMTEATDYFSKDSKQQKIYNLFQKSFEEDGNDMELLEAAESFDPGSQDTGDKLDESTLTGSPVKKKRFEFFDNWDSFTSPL
Procedure: as §1, §2, §3

[7] = molecular target: T5, MAD 33 (ADAAD deletion construct; motifs Q, I, Ia) (Bos taurus, UniProt Q9TTA5); test: Fluorescence binding titration, deletion construct MAD33; settings: GST fusion
T5 sequence (Q9TTA5 211-507): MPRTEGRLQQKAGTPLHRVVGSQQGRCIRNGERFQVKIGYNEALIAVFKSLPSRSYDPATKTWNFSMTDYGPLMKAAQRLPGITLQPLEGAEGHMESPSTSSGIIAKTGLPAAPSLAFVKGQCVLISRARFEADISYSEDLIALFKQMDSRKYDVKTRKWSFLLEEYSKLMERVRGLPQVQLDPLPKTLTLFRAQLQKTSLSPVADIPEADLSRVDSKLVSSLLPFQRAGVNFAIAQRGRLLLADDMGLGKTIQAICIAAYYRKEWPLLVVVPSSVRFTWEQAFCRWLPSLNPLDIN
Procedure: as §1, §2, §3

[8] = molecular target: T6, ADAAD wild type (GST cleaved) (UniProt Q9TTA5 229-940); test: intrinsic tryptophan fluorescence quenching; Fluorescence at 25 C (Cary-Varian spectrofluorimeter); buffer, salt and pH not given (as in ref 13); settings: protein: recombinant; tags: none (GST removed with PreScission); hairpin
T6 sequence: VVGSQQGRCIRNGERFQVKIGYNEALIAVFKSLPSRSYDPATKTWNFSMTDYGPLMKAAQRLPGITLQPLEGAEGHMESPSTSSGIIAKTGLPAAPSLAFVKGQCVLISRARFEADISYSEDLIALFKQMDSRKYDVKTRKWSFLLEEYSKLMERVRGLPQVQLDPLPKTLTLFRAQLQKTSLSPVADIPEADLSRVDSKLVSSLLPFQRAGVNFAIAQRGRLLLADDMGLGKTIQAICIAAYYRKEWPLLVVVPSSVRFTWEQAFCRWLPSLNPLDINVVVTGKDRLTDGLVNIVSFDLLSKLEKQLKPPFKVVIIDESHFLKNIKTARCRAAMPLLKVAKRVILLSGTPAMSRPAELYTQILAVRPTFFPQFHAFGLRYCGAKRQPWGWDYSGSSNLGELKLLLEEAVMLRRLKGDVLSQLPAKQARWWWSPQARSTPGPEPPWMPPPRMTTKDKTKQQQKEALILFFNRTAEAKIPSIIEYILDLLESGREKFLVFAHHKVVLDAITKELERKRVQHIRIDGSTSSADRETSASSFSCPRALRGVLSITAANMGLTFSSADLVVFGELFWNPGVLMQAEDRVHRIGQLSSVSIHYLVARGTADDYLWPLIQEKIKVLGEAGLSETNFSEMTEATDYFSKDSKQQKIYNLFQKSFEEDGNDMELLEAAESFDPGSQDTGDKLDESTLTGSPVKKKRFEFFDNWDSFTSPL

For “slDNA: Stem-loop DNA (5′- GCGCAATTGCGCTCGACGATTTTTTAGCGCAATTGCGC-3′), a well-characterized DNA effector of ADAAD (DNA, backbone and methylation of C not given here; stem-loop DNA)”, the Kd [1] is listed as 6.5 nM, the Kd (ADAAD [2]) is listed as 19.9 nM and the Kd [3] is listed as 8.7 nM. The Kd (ADAAD [4]; ADAAD + ADAADiK (2 μM ADAADiK)) was 0.46 nM, the Kd (ADAAD [4]; ADAAD + ADAADiN (saturated with 2 μM ADAADiN)) was 0.63 nM and the Kd [5] was 22.1 nM. It also gave a Kd [6] of 8.2 nM and a Kd [7] of 41.5 nM.

Work on GCGCAATTGCGCTCGACGATTTTTTAGCGCAATTGCGC (structured_DNA) [slDNA (stem-loop DNA)] yielded a Kd [8] of 3.8 ± 1.1 nM.
